# Laboratory results as given in US10632106B2, “Methods of cancer treatment with 2-(1′H-Indole-3′-carbonyl)-thiazole-4-carboxylic acid methyl ester” (Ariagen, Inc., priority 2009, dated 2020).
# Marks after values point to notes of the source that are not given here.
# Tests used:
# Assay type in all cases: in vivo
# [1] = ITE toxicity monitoring, 7-day i.p. dosing of ITE nano-suspension in C57BL/6 mice; conditions: for #LYMPH / #NEUT / ALT / AST / BUN / NEUT / PLT / TP / WBC: group mean
# Protocol: ITE nano-suspension was prepared by milling ITE powder in water containing 1% CMC-Na (sodium carboxymethyl cellulose), 0.5% SLS (sodium lauryl sulfate), 0.085% PVP K90 (polyvinylpyrrolidone K90), and 0.2% Benzoate with a Media Wet Milling Machine (Dispermat SL-nano, WAB Willy A. Bachofen A G, Muttenz, Switzerland) until reached a desired size range. The particle size was determined by a Laser Diffraction Particle Size Analyzer (MS2000, Malvern Instruments, Worcestershire, UK). The parameters of particle sizes were determined as D10 (diameter of 10% of particles)=67 nm, D50=114 nm, and D90=207 nm. The nano-suspension thus prepared was stored at 4° C. until use.
# Female C57BL/6 mice, 6 to 8 week old, were randomly assigned to 4 dose groups (0, 20, 100, and 500 mg/kg b.w.) each with 6 animals. ITE nano-suspension was administered by i.p. injection once daily for 7 consecutive days. Mortality, clinical signs, body weight, and food consumption were recorded. Data on hematology (3 of 6 mice) and serum chemistry (the other 3 of 6 mice) were collected. TK (Toxicokinetic) parameters were determined as described in Example 1 and plasma levels of ITE at both 1 and 3 hr. post dosing on day 1, 3, and 7 were measured. A gross observation of major organs at necropsy was conducted.
# [2] = test system: HCT116 (human colon cancer) xenografts; experiment: HCT116 xenograft growth inhibition; conditions: ITE 100-200 mg/kg i.p. once daily
# Protocol: (§1) All the procedures related to animal handling, care, and the treatment in the study were performed following guidelines of KeyGen Biotechn Co., Ltd. (Nanjing, China), a contract research organization we hired, based on the guidance of the Association for Assessment and Accreditation of Laboratory Animal Care (AAALAC). Animals were checked for any effects of tumor growth and drug treatment on normal behavior such as mobility, food and water consumption, body weight gain/loss (bodyweights were measured every two days), eye/hair matting, and any other abnormal effect. Death and observed clinical signs were recorded. Individual animals with a tumor volume exceeding 3,000 mm^3 or animals of a group with a mean tumor volume exceeding 2,000 mm^3 were euthanized. In addition, animals showing signs of severe distress and/or pain or losing the capability of accessing adequate food or water were humanely sacrificed.
# (§2) Cell lines HCT116, Siha, MFC were cultured in DMEM medium (high glucose) supplemented with 10% fetal bovine serum (FBS), SW116 and T24 in RPMI-1640 medium with 10% FBS, M14 and A375 in DMEM medium (high glucose) with 10% calf serum (CS), SGC7901 and Ketr-3 in RPMI-1640 medium with 10% CS, and CFPAC-1 in IMDM medium with 10% FBS. All of the cells were cultured, in the presence of 100 U/ml penicillin and 100 μg/ml streptomycin, at 37° C. in an atmosphere of 5% CO2 in air. […] The cells growing in an exponential phase were harvested and counted for tumor inoculation. Cell lines 5180 and U14 were maintained in ascites (peritoneal cavity fluid) of mice and were harvested and counted for tumor inoculation. […]
# (§3) Tumor volume was measured every two days in two dimensions using a caliper and the volume was calculated with a formula of: V=0.5 a×b^2, where a and b are the long and short diameter (in mm) of a tumor, respectively. […] The TGD was calculated as: TGD=T−C, where T was the time (in days) required for tumors in a drug treated group to reach a predetermined mean tumor volume and C the time (in days) in the control group to reach the same volume. […]
# [3] = test system: Ketr-3 (human kidney cancer) xenografts; experiment: Ketr-3 xenograft growth inhibition; conditions: ITE 100-200 mg/kg i.p. once daily
# Protocol: as §1, §2, §3
# [4] = 20 mg/kg ITE nano-suspension i.p. once daily 7 days
# [5] = 100 mg/kg ITE nano-suspension i.p. once daily 7 days
# [6] = 500 mg/kg ITE nano-suspension i.p. once daily 7 days
# [7] = ITE nano-suspension 20, 100, 500 mg/kg b.w. i.p. once daily for 7 days
# [8] = end of therapy relative to beginning
compound,measurement,setting,value
"COC(=O)c1csc(C(=O)c2c[nH]c3ccccc23)n1 [ITE, 2-(1′H-indole-3′-carbonyl)-thiazole-4-carboxylic acid methyl ester]",BUN raised over vehicle,[1]; 20 mg/kg (low dose) group,1.4 folds
same,#LYMPH,[1]; [4],3.35 ×10^9 cells
same,#NEUT,[1]; [4],1.08 ×10^9 cells
same,ALT,[1]; [4],43.2 U/L
same,AST,[1]; [4],118.1 U/L
same,BUN,[1]; [4],10.5* mmol/L
same,NEUT,[1]; [4],23.3%
same,PLT,[1]; [4],435 ×10^9 cells
same,TP,[1]; [4],39.5 g/L
same,WBC,[1]; [4],4.68 ×10^9 cells
same,WBC raised,[1]; 100 mg/kg (mid) group,2.6 folds
same,#LYMPH,[1]; [5],3.5 ×10^9 cells
same,#NEUT,[1]; [5],3.62 ×10^9 cells
same,ALT,[1]; [5],33.2 U/L
same,AST,[1]; [5],131.6 U/L
same,BUN,[1]; [5],7.3 mmol/L
same,NEUT,[1]; [5],46.6%
same,PLT,[1]; [5],668 ×10^9 cells
same,TP,[1]; [5],40.8 g/L
same,WBC,[1]; [5],10.77* ×10^9 cells
same,ALT raised over vehicle control,[1]; 500 mg/kg (high dose) group,3.2 folds
same,TP (total protein) raised over vehicle control,[1]; 500 mg/kg (high dose) group,1.2 folds
same,AST raised over vehicle control,"[1]; 500 mg/kg (high dose) group, not significant",1.8 folds
same,WBC raised,"[1]; 500 mg/kg (high) group, not significant",2.0 folds
same,#LYMPH,[1]; [6],4.81 ×10^9 cells
same,#NEUT,[1]; [6],3.4 ×10^9 cells
same,ALT,[1]; [6],74.5* U/L
same,AST,[1]; [6],151.2 U/L
same,BUN,[1]; [6],9.1 mmol/L
same,NEUT,[1]; [6],40.5%
same,PLT,[1]; [6],1075 ×10^9 cells
same,TP,[1]; [6],49.5* g/L
same,WBC,[1]; [6],8.38 ×10^9 cells
same,body weight loss,[1]; [7],no significant body weight loss
same,mortality,[1]; [7],no mortality observed except that one mouse in 20 mg/kg b.w. (low dose) group died
same,food consumption,"[1]; all 3 ITE treated groups, day 1 of the study",dramatic decrease in food consumption
same,major organ inspection at necropsy,[1]; all the ITE treated groups,No abnormality was observed
same,TGD,"[2]; TGD at Vol. 1,000",3 days
same,TGI (%),"[2]; TGI at day 18, TGI=(1−ΔT/ΔC)×100%",41%
same,Weight Loss,[2]; [8],9%
same,TGD,[3]; TGD at Vol. 500,9 days
same,TGI (%),"[3]; TGI at day 28, TGI=(1−ΔT/ΔC)×100%",74%
same,Weight Loss,[3]; [8],13%
